Assay results taken from patent US20200197430A1, “Combination Therapy” (NuCana plc, priority 2017, published 2020).

Tests used:
[1] = PRO-001 (ProGem1) first-in-human phase I study, pharmacokinetics; type: in vivo; conditions: compared with gemcitabine
Source text: PRO-001 (aka ProGem1) was a first-in-human (FIH), phase I, open label, two stage study to investigate the safety, tolerability, clinical efficacy, pharmacokinetics (PK) and pharmacodynamics (PD) of NUC-1031 given in two parallel dosing schedules in subjects with advanced solid malignancies (EudraCT Number: 2011-005232-26). Subjects had the following tumour types at study entry: colorectal cancer (7 subjects), unknown primary (3), ovarian cancer (13), breast cancer (4), pancreatic cancer (9), cholangiocarcinoma (7), uterine or endometrial cancer (3), cervix cancer (2), lung cancer (6), mesothelioma (3) and thymus cancer (1). The study confirmed NUC-1031′s anti-tumour activity in patients with advanced progressive cancers, who have exhausted all standard therapeutic options, many of whom were resistant or refractory to prior nucleoside analogue therapy, including gemcitabine.

[2] = system: platinum sensitive recurrent ovarian cancer; conditions: cited from earlier work

SMILES: C[C@H](NP(=O)(OC[C@H]1O[C@@H](n2ccc(N)nc2=O)C(F)(F)[C@@H]1O)Oc1ccccc1)C(=O)OCc1ccccc1 (stereo partly drawn) [NUC-1031, 2′-Deoxy-2′,2′-difluoro-D-cytidine-5′-O-[phenyl (benzoxy-L-alaninyl)] phosphate]
- levels of the potentially toxic metabolite dFdU released [1]: lower levels

SMILES: N.N.O=C([O-])C1(C(=O)[O-])CCC1.[Pt+2] [carboplatin]
- response rate [2]: 30.9%
- median PFS ([2]; median follow-up of 17 months): 5.8 months
